In patent US20250213533A1 (GH RESEARCH IRELAND LIMITED, priority 2022, published 2025):

Tested on: patients with postpartum depression (PPD)
Test: Clinical trial of inhaled 5-MeO-DMT (IDR) in postpartum depression; one patient so far, 6 mg then 12 mg
Details: 1 patient
Procedure: The single-arm, open-label clinical trial will involve 15 adult female patients with clinically diagnosed postpartum depression (PPD).
The second dose (12 mg) will only be administered if: • a. […] The 6 mg dose was safe and well-tolerated according to the investigator, • c. Any psychoactive effects (PsE) of the prior dose have subsided, and • d. Pre-dose vital parameters and forced expiratory volume in one second (FEV1) are in normal range, or if outside of the normal range, are not clinically significant according to the investigator. • 3. Similarly, a third dose (18 mg) will only be administered if: • a. […] The 12 mg dose was safe and well-tolerated according to the investigator, and • c. Any PsE of the prior dose have subsided, and • d. Pre-dose vital parameters and forced expiratory volume in one second (FEV1) are in normal range, or if outside of the normal range, are not clinically significant according to the investigator.
The patients will be assessed for a peak psychedelic experience (based on a patient-scored visual analogue scale, the PE scale), sedation, and other endpoints after dosing. Follow-up visits are planned for Day 1, and Day 7 after the dosing day.
The following criteria must be met by all patients considered for clinical trial participation: • 1. Is female and in the age range between 18 and 45 years (inclusive) at screening. • 2. Has a body mass index (BMI) in the range of 18.5 and 35 kg/m^2 (inclusive) at screening. • 3. Meets the trial criteria for PPD as assessed by a trial psychiatrist or registered psychologist: • a. Diagnosis of Major Depressive Disorder without psychotic features, confirmed by the Mini-International Neuropsychiatric Interview (MINI), with peri-partum onset that began no earlier than gestation and no later than the first 4 weeks postpartum. • b. Has a Montgomery-Åsberg Depression Rating Scale (MADRS) total score of equal to or greater than 28 at screening and pre-dose on Day 0. • 6. […] Patients must have a negative pregnancy test at screening and on the pre-test day (Day −1). • 5. Is willing to delay start of other antidepressant or anxiety medication until after the end of the trial at Day 7 and agrees to keep any psychotherapy unchanged during the trial.
A potential patient who meets any of the following key exclusion criteria will be excluded from participation in this trial: • 1. Has, based on history, psychiatric assessment, and evaluation of the MINI, a current or prior diagnosis of bipolar disorder, a manic or hypomanic episode, a psychotic disorder, Major Depressive Disorder (MDD) or other mood disorder with psychotic features, obsessive compulsive disorder, post-traumatic stress disorder (PTSD), autism spectrum disorder, borderline personality disorder, schizophrenia, delusional disorder, paranoid personality disorder, schizoaffective disorder, clinically significant intellectual disability, or any other psychiatric comorbidity that renders the patient unsuitable for the trial according to the investigator's judgment. • 2. Has one or more first or second degree relatives with a current or previously diagnosed bipolar disorder, psychotic disorder or other mood disorder (including MDD) with psychotic features. • 3. Is in the judgement of a trial psychiatrist or registered psychologist, at significant risk for suicide based on history, psychiatric assessment, and evaluation of suicidal ideation and suicidal behaviour based on the Columbia-Suicide Severity Rating Scale (C-SSRS). • 4. Has taken anti-depressive medication within 14 days or 5 half-lives (whichever is longer) prior to dosing (exception: within the last 5 weeks in the case of fluoxetine). • 5.

**Q.** What does the source list for `COc1ccc2[nH]cc(CCN(C)C)c2c1` [5-MeO-DMT]?
**A.** BIMF item 11 (take a little time each week to do something for myself) score (Day 7): 6; BIMF item 12 (taking good care of my baby's physical needs) score (Day 7): 6; BIMF item 13 (taking good care of my physical needs) score (Day 7): 5; BIMF item 14 (good decisions about my baby's health and well being) score (Day 7): 6; BIMF item 15 (My baby and I are getting into a routine) score (Day 7): 6; BIMF item 17 (able to take care of my baby and my other responsibilities) score (Day 7): 5; BIMF item 18 (Anxiety or worry often interferes with my mothering ability) score (Day 7): 5; BIMF item 19 (getting better at taking care of my baby) score (Day 7): 1; BIMF item 20 (satisfied with the job I am doing as a new mother) score (Day 7): 5; BPRS Anxiety improvement (Day 7): 6; BPRS Anxiety score (Day 7): 1; BPRS Blunted affect improvement (Day 7): 0; BPRS Blunted affect score (Day 7): 1; BPRS Conceptual disorganization improvement (Day 7): 0; BPRS Conceptual disorganization score (Day 7): 1; BPRS Depressive Mood improvement (Day 7): 5; BPRS Depressive Mood score (Day 7): 1; BPRS Disorientation improvement (Day 7): 0; BPRS Disorientation score (Day 7): 1; BPRS Emotional withdrawal improvement (Day 7): 4; BPRS Emotional withdrawal score (Day 7): 1; BPRS Excitement improvement (Day 7): 1; BPRS Excitement score (Day 7): 1; BPRS Grandiosity improvement (Day 7): 0; BPRS Grandiosity score (Day 7): 1; BPRS Guilt feelings improvement (Day 7): 5; BPRS Guilt feelings score (Day 7): 1; BPRS Hallucinatory behaviour improvement (Day 7): 0; BPRS Hallucinatory behaviour score (Day 7): 1; BPRS Hostility improvement (Day 7): 0; BPRS Hostility score (Day 7): 1; BPRS Mannerisms and Posturing improvement (Day 7): 0; BPRS Mannerisms and Posturing score (Day 7): 1; BPRS Motor retardation improvement (Day 7): 0; BPRS Motor retardation score (Day 7): 1; BPRS Somatic Concern improvement (Day 7): 5; BPRS Somatic Concern score (Day 7): 1; BPRS Suspiciousness improvement (Day 7): 0; BPRS Suspiciousness score (Day 7): 1; BPRS Tension improvement (Day 7): 5; BPRS Tension score (Day 7): 1; BPRS Uncooperativeness improvement (Day 7): 0; BPRS Uncooperativeness score (Day 7): 1; BPRS Unusual Thought Content improvement (Day 7): 0; BPRS Unusual Thought Content score (Day 7): 1; MADRS Apparent sadness improvement (Day 7): 5; MADRS Apparent sadness score (Day 7): 0; MADRS Concentration Difficulties improvement (Day 7): 0; MADRS Concentration Difficulties score (Day 7): 0; MADRS Inability to Feel improvement (Day 7): 3; MADRS Inability to Feel score (Day 7): 0; MADRS Inner Tension improvement (Day 7): 4; MADRS Inner Tension score (Day 7): 1; MADRS Lassitude improvement (Day 7): 3; MADRS Lassitude score (Day 7): 0; MADRS Pessimistic Thoughts improvement (Day 7): 4; MADRS Pessimistic Thoughts score (Day 7): 0; MADRS Reduced Sleep improvement (Day 7): 5; MADRS Reduced Sleep score (Day 7): 0; MADRS Reduced appetite improvement (Day 7): 0; MADRS Reduced appetite score (Day 7): 0; MADRS Reported sadness improvement (Day 7): 4; MADRS Reported sadness score (Day 7): 0; MADRS Suicidal Thoughts improvement (Day 7): 0; MADRS Suicidal Thoughts score (Day 7): 0; BIMF item 10 (trust my own feelings (instincts) in taking care of my baby) Δ (Day 7 vs Day 0): 1; BIMF item 11 (take a little time each week to do something for myself) Δ (Day 7 vs Day 0): 1; BPRS Anxiety improvement (Discharge): 6; BPRS Anxiety score (Discharge): 1; BPRS Blunted affect improvement (Discharge): 0; BPRS Conceptual disorganization improvement (Discharge): 0; BPRS Depressive Mood improvement (Discharge): 5; BPRS Depressive Mood score (Discharge): 1; BPRS Disorientation improvement (Discharge): 0; BPRS Emotional withdrawal improvement (Discharge): 4; BPRS Emotional withdrawal score (Discharge): 1; BPRS Excitement improvement (Discharge): 1; BPRS Excitement score (Discharge): 1; BPRS Grandiosity improvement (Discharge): 0; BPRS Guilt feelings improvement (Discharge): 5; BPRS Guilt feelings score (Discharge): 1; BPRS Hallucinatory behaviour improvement (Discharge): 0; BPRS Hostility improvement (Discharge): 0; BPRS Mannerisms and Posturing improvement (Discharge): 0; BPRS Motor retardation improvement (Discharge): 0; BPRS Somatic Concern improvement (Discharge): 5; BPRS Somatic Concern score (Discharge): 1; BPRS Suspiciousness improvement (Discharge): 0; BPRS Tension score (Discharge): 1; BPRS Uncooperativeness improvement (Discharge): 0; BPRS Unusual Thought Content improvement (Discharge): 0; BPRS Anxiety score (baseline): 7; BPRS Blunted affect score (baseline): 1; BPRS Conceptual disorganization score (baseline): 1; BPRS Depressive Mood score (baseline): 6; BPRS Disorientation score (baseline): 1; BPRS Emotional withdrawal score (baseline): 5; BPRS Excitement score (baseline): 2; BPRS Grandiosity score (baseline): 1; BPRS Guilt feelings score (baseline): 6; BPRS Hallucinatory behaviour score (baseline): 1; BPRS Hostility score (baseline): 1; BPRS Mannerisms and Posturing score (baseline): 1; BPRS Motor retardation score (baseline): 1; BPRS Somatic Concern score (baseline): 6; BPRS Suspiciousness score (baseline): 1; BPRS Tension score (baseline): 6; BPRS Uncooperativeness score (baseline): 1; BPRS Unusual Thought Content score (baseline): 1; MADRS Apparent sadness score (baseline): 5; MADRS Inability to Feel score (baseline): 3; MADRS Inner Tension score (baseline): 5; MADRS Lassitude score (baseline): 3; MADRS Pessimistic Thoughts score (baseline): 4; MADRS Reported sadness score (baseline): 4; Total MADRS score (baseline): 29; changes in vital parameters (shortly after administration): temporary, clinically non-relevant increase in heart rate and blood pressure
